One series in a line: ABTS assay. The conditions noted are these: for radical scavenger / antioxidant activity, ABTS: compound 100 µM; for EC50 / TEAC, ABTS: mean ± SEM of three independent experiments. The series is classed as biochemical. As to the method:
The ABTS assay was performed according to the methods reported in literature. Briefly, 7 mM of ABTS was mixed with 2.45 mM of K2S2O8 solution, ratio 1:1, in 10 mM phosphate buffer (pH 7.4). The mixture was incubated in a dark box at r.t. for 12 h, then the stock solution was diluted until the absorbance was 0.70 ± 0.02 at 734 nm.
In a 96-well plate, 190 µL ABTS working solution and 10 µL sample solution (compounds 2a–c, 3a–c at concentration of 100 μM) were mixed and the absorbance was measured (734 nm) using a SPECTROstarNano (220–1000 nm) UV–Vis spectrophotometer, Ortenberg, Germany. Then, for compounds 2a–c the EC50 was calculated and the values were expressed in TEAC equivalents. Each concentration was tested in triplicate and the EC50 was reported as the mean ± SEM of three independent experiments.

A further series deals with T1, Human Plasma TTR (Homo sapiens, UniProt P02766).
T1 construct: purchased Merck Millipore, Molsheim, France; host or cells: human plasma
The experiment in a line: ANS competitive binding (displacement) assay. The conditions noted are these: TTR 8 µM, ANS 16 µM. As to the method:
The binding of ANS (8-anilino-1-naphthalenesulfonic acid), Sigma-Aldrich (St. Louis, MO, USA) and its displacement by the three selected compounds 2a–c were studied using Human Plasma TTR (Merck Millipore, Molsheim, France) according to the protocol previously described. Briefly, TTR (8 µM) was incubated with ANS (16 µM) at r.t. for 15 min in 96-well plates. Then, compounds 2a–c at concentrations of 100 µM were added. After 10 min, the fluorescent emission spectra (400–540 nm) were recorded exciting at 280 nm using Molecular Devices SpectraMax Gemini XPS plate reader, (San Jose, CA, USA). For compounds 2a, the IC50 was calculated and value was expressed as the mean ± SEM of the triplicate. All experiments were made in triplicate and, the fluorescence increases of ANS bound to TTR solution compared to its control without TTR, and TTR alone, in phosphate buffer, were used as a control.

The target in a further series is T2, Aβ1-40 (Homo sapiens, UniProt P05067).
T2 construct: Aβ1-40 was obtained from Bachem (Bubendorf, Switzerland); purchased Bachem (Bubendorf, Switzerland)
T2 sequence (P05067 672-711 limits assumed): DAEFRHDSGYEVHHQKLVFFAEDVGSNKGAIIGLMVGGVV
The experiment in a line: Thioflavin T (ThT) fluorescence assay of Aβ1-40 fibril formation. It is filed as biochemical. The conditions noted are these: for inhibition of Aβ1-40 fibril formation (ThT): Aβ1-40 10 µM. The protocol: Aβ1-40 was obtained from Bachem (Bubendorf, Switzerland). To remove preformed aggregates, it was dissolved during 15–20 min at r.t. in 1% NH4OH to give a concentration of 2 mg/mL, followed by immediate lyophilisation. The Aβ1-40 peptide was then dissolved in an aqueous 1% ammonia solution to a concentration of 1 mM and then, just prior to use, was diluted to 0.2 mM with 10 mM Tris-HCl, 100 mM NaCl buffer (pH 7.4). Compounds (2a–c) were dissolved in DMSO (4.9 mM), while TTR in phosphate buffer 20 mM buffer (pH 7.4) at 1 mM concentration. ThT fluorescence was measured to evaluate the development of Aβ1-40 fibrils over time using a fluorescence plate reader (Vantastar, BMG lab-tech, Ortenberg, Germany) with standard 96-well black microliter plates. The ThT fluorescence intensity was recorded by using excitation/emission settings at 440−15 nm/480−15nm for 21 h and applying a double orbital shaking of 10 s before the first cycle. Experiments were triggered by adding Aβ1-40 achieving a final concentration of 10 μM into a mixture containing 40 μM ThT in 10 mM Tris-HCl, 100 mM NaCl buffer (pH 7.4) with and without the studied compounds (10 μM) at 25 °C, and with and without CuCl2 (10 µM). When TTR was assessed in the presence of compound 2a, the ratio between TTR and 2a was adjusted to 1:2 (TTR:2a) in order to let the compound interacting with both hydrophobic pockets. A time of 3 h of incubation was employed before adding the solution into the well. The F reduction is depicted as the intensity of experimental fluorescence plateau observed with the studied compound relative to the value obtained without the compound and is quantified as the following percentage: ((F Aβ1-40+compound − F Aβ1-40)/(F Aβ1-40)) × 100. The data of fluorescence intensity come from at least two independent experiments, where each condition has been performed in duplicate, in the case of the presence of TTR (10 µM), or triplicate, in the case of the absence of TTR (10 µM), respectively. The values are given as averaged percentage ± SEM.

The nature of series [1]: DPPH radical scavenging assay. It is filed as biochemical. The conditions noted are these: for %AA (percentage of antioxidant activity), DPPH: compound 100 µM, DPPH 60 µM in MeOH, 1 h; for EC50 / TEAC (Trolox equivalent antioxidant capacity), DPPH: mean ± SEM of three independent experiments. As to the method: The DPPH assay was carried out in a 96-microwell plate according to a previously described protocol. In brief, DPPH solution (60 µM in MeOH) was added to studied compounds or MeOH as the control. The 96-microwell plate was incubated (in the dark, at r.t. for 1 h) and the absorbance values were read at 517 nm by a SPECTROstarNano (220–1000 nm) UV–Vis spectrophotometer, Ortenberg, Germany. During the first screening, all compounds were tested ad 100 µM, then for compounds 2a–c the EC50 (effective concentration), the concentration of substrate that causes a 50% reduction in the DPPH colour, was calculated.
All experiments were made in triplicate. The percentage of the antioxidant activity (%AA) of the compounds was determined according to Equation (1):%AA = ((AbsDPPH − Abssample)/AbsDPPH) × 100(1)
AbsDPPH is the absorbance of DPPH solution, and Abssample is the absorbance of DPPH solution containing the tested compound.
Each concentration was tested in triplicate and the EC50 value was reported as the mean ± the standard error of the mean (SEM) of three independent experiments.

Series [2] in a line: UV–Vis metal binding study, Cu2+ (mole ratio method). The series is classed as physicochemical. The note with it: ligand 20 μM, Cu2+ 80 µM, MeOH. As to the method:
(§1) The synthesized compounds were tested for their metal chelating effect through spectroscopic measurements. The UV–Vis absorbance of compounds was recorded in the absence and presence of metal ions using a UV–Vis spectrometer (a SPECTROstarNano (220–1000 nm), Ortenberg, Germany. The experiment was performed in 96-well plates and each experiment was made in triplicates. A fixed amount of investigated ligand (20 μM) solubilized in MeOH was mixed with increasing concentration of Cu^2+ (CuCl2), Fe^2+ (FeSO4) and Zn^2+ (ZnCl2) from 0 to 80 μM and incubated for 30 min at room temperature (r.t.). The absorbance change was monitored at wavelengths ranging from 220 to 700 nm. The stoichiometry of studied compounds for Cu^2+ and Fe^2+ complexes was determined by employing the mole ratio method.

Series [3] is described as follows: UV–Vis metal binding study, Fe2+ (mole ratio method). The series is classed as physicochemical. As to the method:
as §1

The subject of the next series is rat brain homogenate. Kind of series: TBARS assay, ex vivo rat brain homogenate (Fe3+/ascorbic acid lipid peroxidation). The series is classed as biochemical. The note with it: compound 1 μM. The protocol:
The TBARS assay was carried on in accordance with a previously published protocol. Briefly, the rat brain, freshly isolated, was homogenized in 10% (w/v) phosphate buffer, pH 7.4. The stock solutions of compounds 2a–c and 3a–c (10 mM in DMSO) were prepared and then diluted at three different concentrations (1 mM, 100 µM, and 10 µM) with phosphate buffer pH 7.4. The experiment was performed in a falcon tube where the rat brain homogenate (100 µL) was added to FeCl3 (20 µM) and ascorbic acid (100 µM) with or without test compounds. […] All samples were heated at 37 °C and were stirred for 30 min. After this period, thiobarbituric acid (1% w/v in 0.05 N NaOH) and 25% v/v HCl were added and the falcon tubes were boiled for 10 min. Then, they were cooled in an ice-cold water bath. Finally, the extraction was executed using n-butanol (3 mL) and the tubes were centrifuged at 2000 g for 10 min. The organic portion was transferred into 96-well plates and the absorbance, at 532 nm, was recorded using a SPECTROstarNano (220–1000 nm) UV–Vis spectrophotometer, Ortenberg, Germany. The TBARS was reported as nmoles of malondialdehyde (MDA)/10 mg of rat brain tissue, by interpolation with the standard curve of 1,1,3,3-tetramethoxypropane. Data represent the mean ± SEM of the triplicate.

On the set-up of series [4]: method as in PMID 31055242. The conditions noted are these: literature value; cited from earlier work.
On the set-up of series [5]: method as in PMID 31055242. The note with it: literature value; cited from earlier work. This is another data set of the same source.

Where two headings read alike, the source gives them in different places.

By EC50 is commonly meant the concentration giving half of the maximal effect. For orientation: IC50 means the concentration at which inhibition is half-maximal. Lower therefore signals greater potency. Usually melting point stands for the temperature, or range, at which the solid turns liquid.

On to `O=C(/C=C/c1ccc(O)c(O)c1)NOCc1ccccc1C(F)(F)F` [Compound 2a, (E)-3-(3,4-dihydroxyphenyl)-N-((2-(trifluoromethyl)benzyl)oxy)acrylamide], for which the melting point was in the range of 80 to 82 °C. Besides, in the series “ABTS assay”, the “radical scavenger / antioxidant activity, ABTS” value is reported as 99.1%; the EC50 worked out at 9.9 ± 0.2 µM; the “TEAC, ABTS” value came to 11.3 ± 0.1 µM. Also, the IC50 at Human Plasma TTR (mean ± SEM of triplicate) was determined as 31.9 µM. Besides, on Human Plasma TTR (compound 100 µM), the “displacement of ANS from TTR” value amounted to 71%. Besides, the “effect on Aβ1-40 fibril formation (ThT)” value on Aβ1-40 (TTR 10 µM pre-incubated with 2a 20 µM (1:2 TTR/2a), without Cu2+) was “slight positive effect”. Also, the “inhibition of Aβ1-40 fibril formation (ThT)” value on Aβ1-40 (with Cu2+ 10 µM, compound 10 µM) is “completely inhibition of the fibril formation”. In addition, the “inhibition of Aβ1-40 fibril formation (ThT)” value on Aβ1-40 (without Cu2+, compound 10 µM (1:1 ratio)) is on record as “discrete inhibitory activity”. In [1], the “%AA (percentage of antioxidant activity), DPPH” value stood at 95%; it took 8.9 ± 0.2 µM to reach a half-maximal effect (EC50); the “TEAC (Trolox equivalent antioxidant capacity), DPPH” value is 12.4 ± 0.4 µM. Besides, the “shift in UV spectrum in the presence of Cu2+ (first screening)” value in series [2] is listed as “significant shift”. Moreover, the “molar fraction of the 2a–Fe2+ complex” value in [3] (Fe2+ 0 to 30 µM, absorbance changes at 330 nm) was found to be 1. In addition, the “change in UV spectrum when Fe2+ was added (first screening)” value in series [3] (ligand 20 μM, Fe2+ 80 µM, MeOH) is “weak change”.
Turning to `O=C(/C=C/c1ccc(O)c(O)c1)NOCc1cccc(C(F)(F)F)c1` [Compound 2b, (E)-3-(3,4-dihydroxyphenyl)-N-((3-(trifluoromethyl)benzyl)oxy)acrylamide], the melting point lay within 110 to 112 °C. Further, in “ABTS assay”, the “radical scavenger / antioxidant activity, ABTS” value worked out at 98.8%; a half-maximal response (EC50) required 13.4 ± 0.1 µM; the “TEAC, ABTS” value worked out at 11.7 ± 0.01 µM. For the same molecule, in series [1], the “%AA (percentage of antioxidant activity), DPPH” value is reported as 96%; the EC50 amounted to 6.1 ± 0.1 µM; the “TEAC (Trolox equivalent antioxidant capacity), DPPH” value was 10.9 ± 0.3 µM. In addition, the “antioxidant effect on TBARS production in rat brain” value with rat brain homogenate is recorded as “maintained its profile”.
Take `O=C(O)/C=C/c1ccc(O)c(O)c1` [caffeic acid]: the EC50 in series [4] was 13.3 µM; in series [5] it was 10.9 µM.

Values taken from PMC10610016, “New Hybrid Compounds Incorporating Natural Products as Multifunctional Agents against Alzheimer’s Disease” (Pharmaceutics, 2023).
